Results on one compound are retold here after US8691755B2, “Pegylated C-peptide” (Cebix AB, priority 2010, dated 2014).

A short description of data set [1]: Repeated-dose GLP toxicology studies with unmodified C-peptide, continuous s.c. infusion. The data set is classed as in vivo, Sprague Dawley rat. To be noted: for No Observed Effect Level: continuous s.c. infusion; for level at time molar: Sprague Dawley, rat, plasma, sc, read-out: C-peptide Css. Here is the method: (§1) In the five GLP toxicology studies conducted with non-PEGylated C-peptide for up to 4 weeks in rats and 13 weeks in Cynomolgus monkeys, the C-peptide was continuously infused s.c. via implanted osmotic pumps. The plasma concentration of C-peptide was measured periodically throughout the studies and a steady-state concentration (Css) over the duration of exposure has been determined for each study as shown in Table E6.

Assay in data set [2]: as above
The data set is classed as in vivo, Cynomolgus monkey. To be noted: for No Observed Effect Level: continuous s.c. infusion; for level at time molar: cynomolgus monkey, plasma, sc, read-out: C-peptide Css. Here is the method:
as §1

Data set [3] in a line: PK of unmodified C-peptide in beagle dogs, single S.C. dose (first PK study).
Description: A pharmacokinetic (PK) study was conducted to determine the C-peptide PK profile with unmodified C-peptide in beagle dogs.
Plasma samples were obtained after centrifugation of the blood (3,000 rpm for 10 minutes) and stored at −80° C. until analysis. […] Results were expressed as C-peptide concentrations. For the PK analysis, the below quantitation level (BQL) was treated as zero and nominal time points were used for all calculations. PK parameters were determined by standard model independent methods based on the individual plasma concentration-time data for each animal using model 200 in WinNonlin Professional 5.2.1 (Pharsight Corp., Mountain View, Calif.).
[4] abbreviates: both, beagle, dog, plasma, sc, 0.5 mg/kg.

The structures appear in SMILES notation. Like-named read-outs stand apart in the source and are kept apart here.

Broadly, the AUC(0-t) is exposure summed from dosing to a finite time, without extrapolation to infinity. The term Cmax denotes the peak of the concentration-time curve. Take `CC(C)C[C@H](NC(=O)[C@H](C)NC(=O)[C@H](CC(C)C)NC(=O)[C@@H]1CCCN1C(=O)[C@H](CCC(N)=O)NC(=O)[C@H](CC(C)C)NC(=O)[C@H](CO)NC(=O)CNC(=O)[C@H](C)NC(=O)CNC(=O)[C@@H]1CCCN1C(=O)CNC(=O)CNC(=O)CNC(=O)[C@H](CC(C)C)NC(=O)[C@H](CCC(=O)O)NC(=O)[C@@H](NC(=O)[C@H](CCC(N)=O)NC(=O)CNC(=O)[C@@H](NC(=O)[C@H](CCC(N)=O)NC(=O)[C@H](CC(C)C)NC(=O)[C@H](CC(=O)O)NC(=O)[C@H](CCC(=O)O)NC(=O)[C@H](C)NC(=O)[C@@H](N)CCC(=O)O)C(C)C)C(C)C)C(=O)N[C@@H](CCC(=O)O)C(=O)NCC(=O)N[C@@H](CO)C(=O)N[C@@H](CC(C)C)C(=O)N[C@@H](CCC(N)=O)C(=O)O` [unmodified C-peptide]: the “No Observed Effect Level” value in data set [1] (4 weeks) stood at 0.5 mg/kg/day; in data set [1] (14 days), 2 mg/kg/day; in data set [2] (13 weeks) it was 3.6 mg/kg/day; in data set [2] (14 days) it was 2 mg/kg/day. Moreover, the level at time molar is 0.0042 µM in data set [1] (0.5 mg/kg/day, 4 weeks at NOEL 0.5 mg/kg/day, mean of days 2, 14, 28); 0.027 µM in data set [1] (2 mg/kg/day, 14 days at NOEL 2 mg/kg/day, mean of days 2, 10, 14); 0.04 µM in data set [2] (13 weeks at NOEL 3.6 mg/kg/day, mean of days 2, 28, 37/38, 56, 91); 0.084 µM in data set [2] (14 days at NOEL 2 mg/kg/day, mean of days 2, 10, 14). For the same compound, the AUC(0-t) in data set [3] (setting [4]) was 1.86 µg·h/mL. The compound further showed a peak concentration (Cmax) in data set [3] (setting [4]) of 0.757 µg/mL. For the same compound, in data set [3] (single S.C. dose 0.5 mg/kg), the “circulating levels of C-peptide below quantitation level (BQL)” value is listed as “BQL within half a day”. The “tolerability (clinical abnormalities)” value in data set [3] (single S.C. dose 0.5 mg/kg) is on record as “well tolerated”.
